Assay results from PMC12206857 (Frontiers in Microbiology, 2025).
“Also recorded” adds a separate entry of the source. Read-outs that look alike come from different tables or passages of the source. *1 amine or outer side, *2 acyl side, *3 side chain or, on linkers, in order; H or OH if unused. Where a SMILES comes first, the peptide text is derived from it. [ ]: non-standard residue; d: D form. X1 = CC(C)CCCCCCCCC[C@H](CC(=O)[*:2])N[*:1]

Tests used:
[1] = tested on: F. graminearum cells; settings: ref Liang et al., 2023; cited from earlier work
[2] = tested on: F. graminearum conidia; settings: ref Gong et al., 2015; cited from earlier work
[3] = tested on: Fusarium oxysporum; settings: 25 μg/mL or 50 μg/mL; ref Hua et al., 2023; cited from earlier work
[4] = tested on: F. graminearum hyphae; assay type: cell-based, Fusarium graminearum; settings: 16 and 32 μg/mL, 12 h in PDB at 28°C
[5] = tested on: F. graminearum; assay type: physicochemical, Fusarium graminearum; settings: filter paper method; for Effect of divalent cations Fe2+, Mg2+, Ca2+ on antifungal activity: 10 nM metal ion; for Thermal stability of antifungal activity: 25°C, 50°C, 100°C water for 30 min
[6] = molecular target: proteinase K (Parengyodontium album, UniProt P06873); settings: n = 3
[7] = tested on: pepsin; settings: 5 mg/mL enzyme, 1 h, 37°C, stopped 10 min at 100°C; read-out antifungal activity against F. graminearum by filter paper method; n = 3
[8] = tested on: F. graminearum; settings: mixture of bacillomycin D with different fatty acid chain lengths; ref Gu et al., 2017; cited from earlier work
[9] = tested on: trypsin; settings: 5 mg/mL enzyme, 1 h, 37°C, stopped 10 min at 100°C; read-out antifungal activity against F. graminearum by filter paper method; n = 3
[10] = molecular target: T1, papain (Carica papaya, UniProt P00784); settings: n = 3
T1 sequence (P00784 134-345): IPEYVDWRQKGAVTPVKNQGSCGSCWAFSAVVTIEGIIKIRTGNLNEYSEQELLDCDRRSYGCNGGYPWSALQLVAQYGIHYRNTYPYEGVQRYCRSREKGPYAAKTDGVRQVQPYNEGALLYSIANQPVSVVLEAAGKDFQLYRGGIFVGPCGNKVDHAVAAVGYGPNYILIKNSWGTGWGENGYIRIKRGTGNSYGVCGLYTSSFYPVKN

[11] = tested on: F. graminearum; assay type: in vivo, Fusarium graminearum on corn seeds; settings: seeds soaked in 64 μg/mL, sprayed with spores 1 × 10^5 CFU/mL, 28°C, 10 seeds per group
[12] = tested on: F. graminearum; assay type: cell-based, Fusarium graminearum; settings: DiSC3(5) fluorescence
[13] = tested on: F. graminearum; assay type: cell-based, Fusarium graminearum; settings: dose-dependent, DCFH-DA fluorescence
[14] = tested on: DON and ZEN; set-up: species or system Fusarium graminearum on corn seeds; settings: in vivo

Chain of proteinase K (P06873 106-384): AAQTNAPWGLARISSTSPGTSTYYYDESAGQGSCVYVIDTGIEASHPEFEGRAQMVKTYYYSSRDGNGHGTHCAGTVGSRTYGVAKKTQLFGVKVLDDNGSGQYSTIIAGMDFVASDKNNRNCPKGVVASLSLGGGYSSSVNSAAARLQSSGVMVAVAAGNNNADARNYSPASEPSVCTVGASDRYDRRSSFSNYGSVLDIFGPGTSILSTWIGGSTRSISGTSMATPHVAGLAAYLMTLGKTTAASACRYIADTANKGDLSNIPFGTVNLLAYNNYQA

For surfactin, the “Intracellular ROS accumulation in F. graminearum cells” value [1] is listed as “induce intracellular ROS accumulation”.
For iturin A, the “MIC, complete killing of F. graminearum conidia” value [2] is given as 50 µg/mL, the “Cell membrane integrity of Fusarium oxysporum” value [3] is given as “disrupted” and the “ROS in Fusarium oxysporum” value [3] is given as “significantly increased”.
With CC(C)CCCCCCCCC[C@@H]1CC(=O)N[C@@H](CC(N)=O)C(=O)N[C@H](Cc2ccc(O)cc2)C(=O)N[C@H](CC(N)=O)C(=O)N2CCC[C@H]2C(=O)N[C@@H](CCC(=O)O)C(=O)N[C@H](CO)C(=O)N[C@@H]([C@@H](C)O)C(=O)N1 [bacillomycin D, C15-bacillomycin D] (cyclo([X1]N[dY][dN]PE[dS]T)) the “Hyphal morphology by SEM” value [4] was “induced abnormal development”, the “Stability of antifungal activity in the presence of metal ions” value ([5]; 10 nM Na+, K+, Ca2+, Mg2+, Cu2+, Fe2+, Fe3+, room temperature, 2.5 mg/mL, n = 3) was “retained stable antibacterial activity” and the “Effect of divalent cations Fe2+, Mg2+, Ca2+ on antifungal activity” value ([5]; room temperature, 2.5 mg/mL, n = 3) was “enhance their antifungal activity”. For the same molecule, the “Effect of divalent cations Fe2+, Mg2+, Ca2+ on antifungal activity” value ([5]; room temperature, 2.5 mg/mL, n = 3, listed as eumelanin) was “significantly enhanced”, the “Thermal stability of antifungal activity” value ([5]; 7 μL of 2.5 mg/mL, colony diameter after 24 h at 28°C, n = 3) was “remains stable” and the “Thermal stability of antifungal activity” value ([5]; 7 μL of 2.5 mg/mL, colony diameter after 24 h at 28°C, n = 3, listed as Bacillomycin D) was “maintained stable antibacterial activity”. For the same molecule, the “Antifungal activity across pH range 2–12” value ([5]; pH 2–12, room temperature) was “maintains good antifungal activity”, the “pH stability of antifungal activity, pH 8 or 10” value ([5]; pH 8 or 10 (pH 8–10), room temperature, 7 μL of 2.5 mg/mL, colony diameter after 24 h at 28°C, n = 3) was “significant enhancement of antibacterial activity; also recorded: significant increase in antifungal activity” and the “pH stability of antifungal activity, pH 14” value ([5]; pH 14, room temperature, 2.5 mg/mL, n = 3) was “complete loss of activity”. The “pH stability of antifungal activity, other pH conditions” value ([5]; pH values from 2 to 14 other than 8, 10 and 14, room temperature, 2.5 mg/mL, n = 3) was “the activity remained stable”, the “Activity after treatment with proteinase K” value [6] was “retained their activity” and the “Activity after treatment with pepsin” value [7] was “retained their activity”. The “Half-inhibitory concentration (IC50) on F. graminearum” value [8] was “approximately 30 μg/mL”, the “Activity after treatment with trypsin” value [9] was “retained their activity” and the “Activity after treatment with papain” value [10] was “retained their activity”. The “Infection of maize seeds by F. graminearum” value [11] was “completely preventing infection”, the “Cell membrane potential (in words)” value [12] was “induced depolarization” and the “ROS levels in F. graminearum cells (in words)” value [13] was “induced abnormal ROS accumulation”. For the same molecule, the “DON toxin synthesis in treated maize seeds” value [14] was “no detectable synthesis” and the “ZEN toxin synthesis in treated maize seeds” value [14] was “no detectable synthesis”.
